Results as given in ChEMBL document CHEMBL1201862, “PubChem BioAssay data set” (2004).
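Cultured in 96-well plates, cells were exposed to test compound for 48 hours across five concentrations. Abbreviation: GI50, concentration required for 50% inhibition of growth.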 Active and inactive are the calls of the source. Cut-off read from the data, not from the text of the source: active = GI50 up to about 1.1 µM and inactive = higher.

Assays:
Assay in all cases: NCI anticancer screen, dose series, 48 h
HCT-15 = system: HCT-15
SK-OV-3 = system: SK-OV-3
SW-620 = system: SW-620
SR = system: SR
COLO 205 = system: COLO 205
SK-MEL-2 = system: SK-MEL-2
A498 = system: A498
NCI-H460 = system: NCI-H460
SK-MEL-5 = system: SK-MEL-5
ACHN = system: ACHN
CAKI-1 = system: CAKI-1
UO-31 = system: UO-31
SF-268 = system: SF-268
NCI-H226 = system: NCI-H226
KM12 = system: KM12
SF-295 = system: SF-295
HT-29 = system: HT-29
SK-MEL-28 = system: SK-MEL-28
A549 = system: A549
UACC-257 = system: UACC-257

| SMILES | GI50 (HCT-15) [µM] | GI50 (SK-OV-3) | GI50 (SW-620) | GI50 (SR) | GI50 (COLO 205) | GI50 (SK-MEL-2) | GI50 (A498) | GI50 (NCI-H460) | GI50 (SK-MEL-5) | GI50 (ACHN) | GI50 (CAKI-1) | GI50 (UO-31) | GI50 (SF-268) | GI50 (NCI-H226) | GI50 (KM12) | GI50 (SF-295) | GI50 (HT-29) | GI50 (SK-MEL-28) | GI50 (A549) | GI50 (UACC-257) |
| --- | --- | --- | --- | --- | --- | --- | --- | --- | --- | --- | --- | --- | --- | --- | --- | --- | --- | --- | --- | --- |
| C[C@]12CC[C@@H]3c4ccc(O)cc4CC[C@H]3[C@@H]1C/C(=C\c1ccncc1)C2=O | 7.29 | 35.1 µM (inactive) | 27.5 µM (inactive) | 6.32 µM (inactive) | 29.7 µM (inactive) | 12.8 µM (inactive) | 34 µM (inactive) | 9.4 µM (inactive) | 8.04 µM (inactive) | 20.1 µM (inactive) | 33.2 µM (inactive) | 35.6 µM (inactive) | 30.1 µM (inactive) | 19.3 µM (inactive) | 13.7 µM (inactive) | 24.9 µM (inactive) | 19.3 µM (inactive) | 64.3 µM (inactive) | 19.1 µM (inactive) | 27.5 µM (inactive) |
| Nc1nc(N)c2cc(Sc3ccc4nc(N)nc(N)c4c3)ccc2n1 | 0.659 | > 100 µM (inactive) | – | > 100 µM (inactive) | 10.9 µM (inactive) | > 100 µM (inactive) | > 100 µM (inactive) | < 0.0145 µM (active) | – | 0.493 µM (active) | > 100 µM (inactive) | > 100 µM (inactive) | 0.136 µM (active) | > 29.2 µM (inactive) | 2.15 µM (inactive) | – | 0.0933 µM (active) | > 100 µM (inactive) | < 0.01 µM (active) | > 100 µM (inactive) |
| O=[N+]([O-])c1cccc2nc3ccccc3c(NCCNCCO)c12 | 0.0405 | 0.0374 µM (active) | 0.00899 µM (active) | 0.00112 µM (active) | 0.00176 µM (active) | 0.00281 µM (active) | 0.0121 µM (active) | 0.00184 µM (active) | 0.00153 µM (active) | 0.00875 µM (active) | 0.0178 µM (active) | 0.07 µM (active) | 0.00134 µM (active) | 0.0166 µM (active) | 0.0122 µM (active) | 0.00425 µM (active) | 0.00361 µM (active) | 0.047 µM (active) | 0.00337 µM (active) | 0.0154 µM (active) |
| O=C1CC(=O)c2c(O)cc(O)c(c2O)-c2c(ccc(O)c2O)C2=CC(=O)c3c(O)cc(O)c(c3O2)-c2c1ccc(O)c2O.O=C1CC2(O)Oc3c1c(O)cc(O)c3-c1c(ccc(O)c1O)-c1cc(=O)c3c(O)cc(O)c(c3o1)-c1c2ccc(O)c1O | > 50 | > 50 µM (inactive) | > 50 µM (inactive) | > 50 µM (inactive) | > 50 µM (inactive) | > 50 µM (inactive) | > 50 µM (inactive) | > 50 µM (inactive) | > 50 µM (inactive) | – | > 50 µM (inactive) | > 50 µM (inactive) | > 50 µM (inactive) | > 50 µM (inactive) | – | > 50 µM (inactive) | > 50 µM (inactive) | > 50 µM (inactive) | > 50 µM (inactive) | > 50 µM (inactive) |
| CC(=O)O[C@@H]1[C@H]2[C@@H](OC(=O)c3ccccc3)[C@@H](C)C[C@]2(O)[C@H](OC(C)=O)[C@@]2(C)[C@@H]3C[C@@](C)(OC(C)=O)C[C@@H](OC(C)=O)[C@@]3(OC(C)=O)C[C@@]12C | > 10 | > 10 µM (inactive) | > 10 µM (inactive) | > 10 µM (inactive) | > 10 µM (inactive) | > 10 µM (inactive) | > 10 µM (inactive) | > 10 µM (inactive) | > 10 µM (inactive) | > 10 µM (inactive) | > 10 µM (inactive) | > 10 µM (inactive) | > 10 µM (inactive) | > 10 µM (inactive) | > 10 µM (inactive) | > 10 µM (inactive) | – | – | – | > 10 µM (inactive) |
| O=C1CCCC(=O)N1CCc1c[nH]c2ccccc12 | – | > 100 µM (inactive) | > 100 µM (inactive) | > 100 µM (inactive) | – | > 100 µM (inactive) | 77.3 µM (inactive) | > 100 µM (inactive) | > 100 µM (inactive) | > 100 µM (inactive) | > 100 µM (inactive) | > 100 µM (inactive) | > 100 µM (inactive) | 80.9 µM (inactive) | > 100 µM (inactive) | > 100 µM (inactive) | > 100 µM (inactive) | > 100 µM (inactive) | > 100 µM (inactive) | > 100 µM (inactive) |
| COC(=O)N/N=C(/CC1(O)C(=O)Nc2ccc([N+](=O)[O-])cc21)c1ccccc1 (configuration not stated) | > 51.2 | 66.4 µM (inactive) | 37.8 µM (inactive) | 29.9 µM (inactive) | 50.7 µM (inactive) | 31.2 µM (inactive) | 14 µM (inactive) | 63.8 µM (inactive) | 23.9 µM (inactive) | 33.3 µM (inactive) | 75.7 µM (inactive) | 40.9 µM (inactive) | 45.4 µM (inactive) | 40.9 µM (inactive) | 34.4 µM (inactive) | 17.5 µM (inactive) | 31.4 µM (inactive) | 23.2 µM (inactive) | 63.1 µM (inactive) | 42.4 µM (inactive) |
| C/C(=N\Nc1nc2ccccc2[nH]1)c1cccc[n+]1[O-] | 51.5 | > 100 µM (inactive) | > 100 µM (inactive) | 30.1 µM (inactive) | 65.8 µM (inactive) | > 100 µM (inactive) | > 100 µM (inactive) | 49.2 µM (inactive) | > 100 µM (inactive) | 71 µM (inactive) | 34.5 µM (inactive) | 64.6 µM (inactive) | > 100 µM (inactive) | 45.4 µM (inactive) | 44.7 µM (inactive) | 3.48 µM (inactive) | 32.1 µM (inactive) | > 100 µM (inactive) | > 100 µM (inactive) | > 100 µM (inactive) |
| C=C(C)C(=O)[C@@]12C(=O)[C@@H](C)CC[C@H]1[C@H](C)C[C@@H]2C=C(C)C | 19.9 | 37 µM (inactive) | 20.2 µM (inactive) | > 10 µM (inactive) | 18.8 µM (inactive) | 13.8 µM (inactive) | 52.4 µM (inactive) | – | 19.4 µM (inactive) | 12.9 µM (inactive) | 29.4 µM (inactive) | 20.2 µM (inactive) | 17.2 µM (inactive) | < 0.01 µM (active) | 23.9 µM (inactive) | 33.9 µM (inactive) | 14.6 µM (inactive) | 34 µM (inactive) | 32.7 µM (inactive) | 15.2 µM (inactive) |
| CC1(O)OC(=O)C2=C1CCC1C2CCC2(C)C(O)CCC12 (configuration not stated) | > 100 | – | > 100 µM (inactive) | > 100 µM (inactive) | – | – | > 100 µM (inactive) | > 100 µM (inactive) | > 100 µM (inactive) | > 100 µM (inactive) | > 100 µM (inactive) | > 100 µM (inactive) | > 100 µM (inactive) | > 100 µM (inactive) | > 100 µM (inactive) | > 100 µM (inactive) | > 100 µM (inactive) | > 100 µM (inactive) | > 100 µM (inactive) | > 100 µM (inactive) |
| Oc1ccc(-c2nc3cc(C(F)(F)F)ccc3s2)cc1 | 10.1 | 26 µM (inactive) | 20.2 µM (inactive) | 15.8 µM (inactive) | 18.8 µM (inactive) | 16.1 µM (inactive) | 18.2 µM (inactive) | 15.4 µM (inactive) | 14.9 µM (inactive) | 14.5 µM (inactive) | 15.7 µM (inactive) | 13.6 µM (inactive) | 16.1 µM (inactive) | 17.3 µM (inactive) | 13.1 µM (inactive) | 15 µM (inactive) | 18.9 µM (inactive) | – | 15.4 µM (inactive) | 18 µM (inactive) |
| COc1ccc(C2C(=O)c3ccc(OC)cc3OC2c2cccnc2)cc1 (configuration not stated) | > 100 | 43.2 µM (inactive) | > 100 µM (inactive) | > 100 µM (inactive) | > 100 µM (inactive) | > 100 µM (inactive) | > 100 µM (inactive) | > 100 µM (inactive) | > 100 µM (inactive) | > 100 µM (inactive) | > 100 µM (inactive) | > 100 µM (inactive) | 49.8 µM (inactive) | 44.2 µM (inactive) | > 100 µM (inactive) | 46.6 µM (inactive) | > 100 µM (inactive) | > 100 µM (inactive) | > 100 µM (inactive) | > 100 µM (inactive) |
| O=C(O)C1(C(O)c2ccccc2)SCCCS1 (configuration not stated) | > 10 | > 10 µM (inactive) | > 10 µM (inactive) | > 10 µM (inactive) | – | > 10 µM (inactive) | > 10 µM (inactive) | > 10 µM (inactive) | > 10 µM (inactive) | > 10 µM (inactive) | – | > 10 µM (inactive) | > 10 µM (inactive) | > 10 µM (inactive) | > 10 µM (inactive) | > 10 µM (inactive) | > 10 µM (inactive) | > 10 µM (inactive) | > 10 µM (inactive) | > 10 µM (inactive) |
| Cc1nc2c(sc(=S)n2-c2ccccc2)c(=O)[nH]1 | – | > 100 µM (inactive) | > 100 µM (inactive) | > 100 µM (inactive) | > 100 µM (inactive) | > 100 µM (inactive) | > 100 µM (inactive) | > 100 µM (inactive) | > 100 µM (inactive) | > 100 µM (inactive) | – | > 100 µM (inactive) | > 100 µM (inactive) | > 100 µM (inactive) | > 100 µM (inactive) | > 100 µM (inactive) | > 100 µM (inactive) | > 100 µM (inactive) | > 100 µM (inactive) | > 100 µM (inactive) |
| CC(=O)OCC1OC(N2C(=O)NC(=O)C3C=C4CCCCC4=CC32)C(OC(C)=O)C1OC(C)=O (configuration not stated) | > 100 | > 100 µM (inactive) | > 100 µM (inactive) | > 100 µM (inactive) | > 100 µM (inactive) | > 100 µM (inactive) | > 100 µM (inactive) | > 100 µM (inactive) | > 100 µM (inactive) | > 100 µM (inactive) | > 100 µM (inactive) | > 100 µM (inactive) | – | – | – | > 100 µM (inactive) | – | > 100 µM (inactive) | > 100 µM (inactive) | > 100 µM (inactive) |
